{"source": "PubChem BioAssay (NCI)", "assay_in_all_cases": "inhibition of tumour cell growth, NCI panel, 48 h", "key": {"HOP-18 NSCLC": {"test_system": "HOP-18 NSCLC"}, "HOP-62 NSCLC": {"test_system": "HOP-62 NSCLC"}, "DMS 114 small cell lung": {"test_system": "DMS 114 small cell lung"}, "OVCAR-8 ovarian": {"test_system": "OVCAR-8 ovarian"}, "LOX IMVI melanoma": {"test_system": "LOX IMVI melanoma"}, "MDA-MB-231 breast": {"test_system": "MDA-MB-231 breast"}, "UACC-62 melanoma": {"test_system": "UACC-62 melanoma"}, "786-0 renal": {"test_system": "786-0 renal"}, "DLD-1 colon": {"test_system": "DLD-1 colon"}, "M14 melanoma": {"test_system": "M14 melanoma"}}, "note": "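All cell lines were grown in 96-well plates and treated with compound for 48 hours. The concentration for full growth arrest is given as TGI.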"}
{"smiles": "COC(=O)/C(=C/c1ccc(OC)cc1)c1cc(OC)c(OC)c(OC)c1", "values": [{"measurement": "TGI", "setting": "HOP-18 NSCLC", "result": "> 100", "unit": "µM"}, {"measurement": "TGI", "setting": "HOP-62 NSCLC", "result": "> 51.2", "unit": "µM"}, {"measurement": "TGI", "setting": "DMS 114 small cell lung", "result": "> 23.3", "unit": "µM"}, {"measurement": "TGI", "setting": "OVCAR-8 ovarian", "result": "> 100", "unit": "µM"}, {"measurement": "TGI", "setting": "LOX IMVI melanoma", "result": "> 100", "unit": "µM"}, {"measurement": "TGI", "setting": "MDA-MB-231 breast", "result": "> 100", "unit": "µM"}, {"measurement": "TGI", "setting": "UACC-62 melanoma", "result": 37.4, "unit": "µM"}, {"measurement": "TGI", "setting": "786-0 renal", "result": "> 86", "unit": "µM"}, {"measurement": "TGI", "setting": "DLD-1 colon", "result": "> 100", "unit": "µM"}, {"measurement": "TGI", "setting": "M14 melanoma", "result": "> 96.3", "unit": "µM"}]}
